# Paper PMC6270420, “Antibacterial Activity of Salicylanilide 4-(Trifluoromethyl)benzoates” (Molecules, 2013)
# Where two headings read alike, the source gives them in different places.
# Columns and labels:
# Mtb. 7357/1988 = assay: microbe, parasite or virus in culture; format: cell-based; details: Mycobacterium tuberculosis, read-out: MIC Mtb. 7357/1988
# Mtb. Praha 131 (XDR-TB) = assay: microbe, parasite or virus in culture; format: cell-based; details: Mycobacterium tuberculosis, read-out: MIC Mtb. Praha 131 (XDR-TB)
# [1] = system: Mycobacterium kansasii 235/80; assay: Antimycobacterial MIC micromethod; format: cell-based; details: read-out: MIC M. kansasii 235/80
# Mtb. 234/2005 = assay: microbe, parasite or virus in culture; format: cell-based; details: Mycobacterium tuberculosis, read-out: MIC Mtb. 234/2005
# [2] = system: Mycobacterium tuberculosis 331/88 (H37Rv); assay: Antimycobacterial MIC micromethod, Šula's medium; format: cell-based
# [3] = target: T1, mycobacterial isocitrate lyase (ICL1, Rv0467) (Mycobacterium tuberculosis, UniProt P9WKK7); assay: Isocitrate lyase inhibition assay (ICL1); format: biochemical, Mycobacterium tuberculosis H37Rv; details: 10 μmol/L; read-out: % ICL inhibition at 10 μmol/L (± standard deviation)
# T1 construct: His tag (from pET-28b(+)); made in house; host or cells: E. coli BL21(DE3), pET-28b(+) plasmid
# T1 sequence (P9WKK7 1-428): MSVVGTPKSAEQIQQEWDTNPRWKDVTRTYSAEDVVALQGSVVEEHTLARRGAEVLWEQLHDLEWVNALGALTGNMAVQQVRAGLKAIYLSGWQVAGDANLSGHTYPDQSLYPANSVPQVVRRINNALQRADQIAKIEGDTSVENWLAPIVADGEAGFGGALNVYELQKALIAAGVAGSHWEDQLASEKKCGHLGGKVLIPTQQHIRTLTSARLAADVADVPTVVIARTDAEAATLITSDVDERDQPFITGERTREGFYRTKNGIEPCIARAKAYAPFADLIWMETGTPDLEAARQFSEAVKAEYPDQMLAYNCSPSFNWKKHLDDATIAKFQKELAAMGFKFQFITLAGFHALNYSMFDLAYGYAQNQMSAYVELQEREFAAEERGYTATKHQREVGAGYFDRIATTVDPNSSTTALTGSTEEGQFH
# [4] = system: Gram-positive cocci including MRSA; assay: Antibacterial microdilution, summary for Gram-positive cocci; format: cell-based; details: Staphylococcus aureus, read-out: MICs against Gram-positive cocci
# Method: (§1) The in vitro antibacterial activity was assayed against eight Gram-positive and Gram-negative strains: Staphylococcus aureus CCM 4516/08, methicillin-resistant Staphylococcus aureus H 5996/08 (MRSA), Staphylococcus epidermidis H 6966/08, Enterococcus sp. J 14365/08; Escherichia coli CCM 4517, Klebsiella pneumoniae D 11750/08, ESBL-positive Klebsiella pneumoniae J 14368/08, and Pseudomonas aeruginosa CCM 1961.
# (§2) The microdilution broth method modified according to standard M07-A07 in Mueller-Hinton broth (HiMedia Laboratories, Mumbai, India) adjusted to pH 7.4 (±0.2) was used. The tested compounds were dissolved in DMSO to the final concentrations ranging from […]. Benzylpenicillin (penicillin G) was used as a comparative drug. Bacterial inoculum in sterile water was prepared to match 0.5 McFarland scale ([…]). The minimum inhibitory concentrations were assayed as 90% (IC90) or higher reduction of growth when compared to the control. The determination of results was performed visually and spectrophotometrically (at 540 nm). The values of MICs were determined after 24 and 48 h of incubation in the darkness at 35 °C (±0.1) in a humid atmosphere.
# Mtb. Praha 1 = assay: microbe, parasite or virus in culture; format: cell-based; details: Mycobacterium tuberculosis, read-out: MIC Mtb. Praha 1
# Mtb. 9449/2006 = assay: microbe, parasite or virus in culture; format: cell-based; details: Mycobacterium tuberculosis, read-out: MIC Mtb. 9449/2006
# Mtb. 53/2009 = assay: microbe, parasite or virus in culture; format: cell-based; details: Mycobacterium tuberculosis, read-out: MIC Mtb. 53/2009
# [5] = system: Escherichia coli CCM 4517; assay: Antibacterial microdilution broth method; format: cell-based; details: read-out: MIC/IC90 E. coli CCM 4517
# Method: as §1, §2
# [6] = system: Enterococcus sp. J 14365/08; assay: Antibacterial microdilution broth method; format: cell-based; details: read-out: MIC/IC90 Enterococcus sp. J 14365/08
# Method: as §1, §2
# [7] = system: Staphylococcus epidermidis H 6966/08; assay: Antibacterial microdilution broth method; format: cell-based; details: read-out: MIC/IC90 S. epidermidis H 6966/08
# Method: as §1, §2
# [8] = system: Staphylococcus aureus CCM 4516/08; assay: Antibacterial microdilution broth method; format: cell-based; details: read-out: MIC/IC90 S. aureus CCM 4516/08
# Method: as §1, §2
# [9] = system: methicillin-resistant Staphylococcus aureus H 5996/08 (MRSA); assay: Antibacterial microdilution broth method; format: cell-based; details: read-out: MIC/IC90 MRSA H 5996/08
# Method: as §1, §2
# [10] = system: M. kansasii 6509/96 (clinically isolated strain); assay: Antimycobacterial MIC micromethod; format: cell-based; details: Mycobacterium kansasii, read-out: MIC M. kansasii 6509/96
# [11] = system: Mycobacterium avium 330/88; assay: Antimycobacterial MIC micromethod; format: cell-based
# HepG2 cells = assay: Cytotoxicity evaluation (CellTiter 96 MTS); format: cell-based, human; details: Homo sapiens, HepG2, 24 h, read-out: IC50 HepG2
# Method: Seven esters and their parent salicylanilides with the most robust antimicrobial activity were tested for cytotoxicity in the human hepatocellular liver carcinoma cell line HepG2 (passages 21–24; ECACC, Salisbury, UK) using a standard colorimetric method measuring a tetrazolium salt reduction (CellTiter(R) 96 AQueous One Solution Assay, Promega G3580, Madison, WI, USA).
# The cells were routinely cultured in Minimum Essentials Eagle Medium (Sigma-Aldrich, Darmstadt, Germany) supplemented with 10% foetal bovine serum (PAA; Biotech, Prague, Czech Republic), 1% of L-glutamine solution (Sigma-Aldrich), and non-essential amino acids solution (Sigma-Aldrich) in a humidified atmosphere containing 5% CO2 at 37 °C. For subculturing, the cells were harvested after trypsin/EDTA (Sigma-Aldrich) treatment at 37 °C. The cells treated with the tested substances were used as experimental groups. Untreated HepG2 cells were used as control groups.
# The cells were seeded in density 1 × 10^4 cells per well in a 96-well plate with microscopic control. Next day, the cells were treated with each of the tested substances. […] The most of the tested compounds were prepared in incubation concentrations of 0.01–20 µM in triplicates. 4-(Trifluoromethyl)benzoic acid was applied in the concentrations of 10–4,000 µM in triplicates. The following types of controls were included: determination of 100% viability and 0% viability (the cells treated by 10% DMSO), no cell control and vehiculum controls. These checking samples were prepared in triplicates.
# The treated cells were incubated together with controls at 37 °C for 24 h in 5% CO2 atmosphere. After this time reagent from the kit CellTiter 96 AQueous One Solution Cell Proliferation Assay was added. The CellTiter 96 assay is based on the reduction of tetrazolium salt MTS [3-(4,5-dimethylthiazol-2-yl)-5-(3-carboxymethoxyphenyl)-2-(4-sulfophenyl)-2H-tetrazolium] to water-soluble formazan dye by metabolically active cells. The reduction of the reagent is attributed to availability of NADH or NADPH. The decline in levels of these metabolically important compounds in the cell causes that the production of formazan is reduced. The tested plate was incubated for 2 h at 37 °C and 5% CO2 and after this time, the absorbance was recorded at 490 nm using a 96-well plate reader (TECAN, Infinite M200, Grödig, Austria).
# The results were expressed as inhibitory concentration which is necessary to inhibit cell viability to 50% from the maximal (control) viability (IC50). A standard toxicological parameter IC50 was calculated in each of the tested substances using GraphPad Prism software (version 5.02; GraphPad Software Inc., San Diego, CA, USA).
# [12] = system: Mycobacterium tuberculosis, M. avium and M. kansasii; assay: Antimycobacterial MIC, summary over all mycobacterial strains; format: cell-based; details: range over all strains and times; read-out: MICs against all mycobacterial strains
# [13] = 336 h, 14 d, read-out: MIC Mtb. 331/88
# [14] = 504 h, 21 d, read-out: MIC Mtb. 331/88
SMILES,MIC (Mtb. 7357/1988; 336 h),MIC (Mtb. 7357/1988; 504 h),MIC (Mtb. Praha 131 (XDR-TB); 336 h),MIC (Mtb. Praha 131 (XDR-TB); 504 h),"MIC ([1]; 235/80, 168 h, 7 d)","MIC ([1]; 235/80, 336 h, 14 d)","MIC ([1]; 235/80, 504 h, 21 d)",MIC (Mtb. 234/2005; 336 h),MIC (Mtb. 234/2005; 504 h),"MIC [2, 13]","MIC [2, 14]",inhibition at 10 µM [3],MIC (Mtb. Praha 1; 336 h),MIC (Mtb. Praha 1; 504 h),MIC (Mtb. 9449/2006; 336 h),MIC (Mtb. 9449/2006; 504 h),MIC (Mtb. 53/2009; 336 h),MIC (Mtb. 53/2009; 504 h),"MIC ([10]; 168 h, 7 d)","MIC ([10]; 336 h, 14 d)",further results
O=C(Oc1cc(Cl)ccc1C(=O)Nc1cccc(Cl)c1)c1ccc(C(F)(F)F)cc1 [1b],8 µM,8 µM,8 µM,8 µM,1 µM,4 µM,4 µM,8 µM,8 µM,4 µM,4 µM,13 ± 1.7%,4 µM,4 µM,4 µM,4 µM,8 µM,8 µM,2 µM,8 µM,"MIC [4]: < 1 µM; MIC ([5]; CCM4517, 24 h): > 250 µM; MIC ([5]; CCM4517, 48 h): > 250 µM; MIC ([6]; SP.J14365/08, 24 h): 7.81 µM; MIC ([6]; SP.J14365/08, 48 h): 15.6 µM; MIC ([7]; H6966/08, 24 h): 0.98 µM; MIC ([7]; H6966/08, 48 h): 1.95 µM; MIC ([8]; CCM4516, 24 h): 0.98 µM; MIC ([8]; CCM4516, 48 h): 1.95 µM; MIC ([9]; 24 h): 0.98 µM; MIC ([9]; 48 h): 1.95 µM; MIC ([10]; 504 h, 21 d): 8 µM; MIC ([11]; 330/88, 336 h, 14 d): 8 µM; MIC ([11]; 330/88, 504 h, 21 d): 8 µM"
O=C(Oc1ccc(Br)cc1C(=O)Nc1ccc(C(F)(F)F)cc1)c1ccc(C(F)(F)F)cc1 [1r],1 µM,1 µM,0.5 µM,1 µM,1 µM,2 µM,4 µM,0.5 µM,1 µM,1 µM,1 µM,≥ 20%,0.5 µM,1 µM,1 µM,1 µM,1 µM,2 µM,1 µM,2 µM,"IC50 (HepG2 cells): 2.03 µM; MIC ([2]; time not stated, read-out: MIC against M. tuberculosis): 1 µM; MIC [12]: 1 to 4 µM; MIC ([10]; 504 h, 21 d): 4 µM; MIC ([11]; 330/88, 336 h, 14 d): 2 µM; MIC ([11]; 330/88, 504 h, 21 d): 4 µM"
